From PMC10823475, “Design, Synthesis, and Evaluation of Inhibitors of Hedgehog Acyltransferase” (Journal of Medicinal Chemistry, 2024)
Read-outs that look alike come from different tables or passages of the source.

Legend:
[1] = PAMPA parallel artificial membrane permeability assay; conditions: for recovery at 16 h, 10 µM / Papp at 16 h, 10 μM: PAMPA
Method: Passive diffusion was estimated using the PAMPA method. […] The donor plate was a MultiScreen-IP Plate with 0.45 μm hydrophobe Immobilon-P Membrane (Millipore, #MAIPNTR10) and the acceptor plate was a MultiScreen 96-well Transport Receiver Plate (Millipore, #MATRNPS50). […] Acceptor pH was 7.4. All samples were analyzed against an external, matrix-matched, standard curve by LC-MS/MS with a Waters (Elstree, Herts. UK) Acquity H-class LC system coupled to a Waters TQ-S mass spectrometer. Permeability values (cm/s) were calculated using the following equation: [drawing 2] and VD = volume of donor; VA = volume of acceptor; area = surface area of the membrane · porosity.

[2] = Caco-2 permeability assay; assay type: in vitro ADME, human; conditions: human; for Papp A→B at 2 h, 10 μM / Papp B→A at 2 h, 10 μM / recovery at 2 h, 10 µM: Caco-2, pH 7.4, 10 µM; for efflux ratio at 2 h, 10 µM: Caco-2, pH 7.4, read-out: Caco-2 Eflux Ratio (B>A/A>B)
Method: (§1) Apparent permeability (Papp) was determined in the Caco-2 human colon carcinoma cell line. Cells were maintained in DMEM containing 10% fetal bovine serum, penicillin and streptomycin in a humidified atmosphere with 5% CO2 for 10 days. Cells were plated onto a cell culture assembly plate (Millipore, UK) and monolayer confluency was checked using a TEER electrode prior to the assay. Medium was washed off and replaced in the appropriate apical and basal wells with HBSS buffer (pH 7.4) containing compounds (10 μM, 1% DMSO). The Caco-2 plate was incubated for 2 h at 37 °C, and Lucifer yellow was used to confirm membrane integrity postassay. […] Papp was determined as follows: [drawing 1] where Vr = volume of receptical; A = surface area of monolayer; C0 = Initial compound concentration in donor.

[3] = system: Caco-2 human colon carcinoma cell line; assay: Caco-2 permeability assay; assay type: in vitro ADME
Method: as §1

[4] = Microsomal incubations, human liver microsomes; assay type: in vitro ADME; conditions: 1 μM
Method: Metabolic stability assays were performed using a Microlab Star liquid handling workstation (Hamilton Robotics, Bonaduz, Switzerland). Test compounds (1 μM, 1% DMSO) were preincubated at 37 °C for 10 min in 0.5 mg/mL female CD1 mouse and mixed gender human liver microsomes in 10 mM phosphate buffered saline (PBS; Sigma-Aldrich Company Ltd. (Dorset, UK)). Microsomes were purchased either from Sekisui XenoTech, LLC (Kansas City, USA) or BioreclamationIVT (Frankfurt Am Main, Germany). Reactions were initiated by the addition of NADPH (final concentration 1 mM). At 0, 15, and 30 min, aliquots were removed from each incubation and quenched in 3 volumes of ice-cold methanol containing olomoucine (Sigma-Aldrich, Dorset, UK) as an internal standard. […] The percentage metabolized was calculated by comparing peak area ratio (peak area test compound/peak area of internal standard) at t = 15 and 30 min versus t = 0 min.

HHAT = target: HHAT; parameters: method as in PMID 34890564, PMID 33768725; conditions: read-out: Ki, competitive inhibitor of Pal-CoA; cited from earlier work
[5] = pH 5, PAMPA Papp pH 5, donor pH 5, 10 µM
[6] = pH 5, PAMPA Permeability Class pH 5, donor pH 5, 10 µM
[7] = pH 6.5, PAMPA Papp pH 6.5, donor pH 6.5, 10 µM
[8] = pH 6.5, PAMPA Permeability Class pH 6.5, donor pH 6.5, 10 µM
[9] = pH 7.4, PAMPA Papp pH 7.4, donor pH 7.4, 10 µM
[10] = pH 7.4, PAMPA Permeability Class pH 7.4, donor pH 7.4, 10 µM
[11] = + Verapamil (P-glycoprotein inhibitor)
[12] = + Verapamil (P-glycoprotein inhibitor), read-out: Caco-2 A>B Recovery
[13] = + Verapamil (P-glycoprotein inhibitor), read-out: Caco-2 B>A Recovery
[14] = without Verapamil, read-out: Caco-2 A>B Recovery
[15] = without Verapamil, read-out: Caco-2 B>A Recovery

## C=CCNCC(=O)N1CCc2sccc2C1COc1ccc(Cl)cc1 (stereo not shown) [Compound 2]
[1]; pH 5
  recovery at 16 h, 10 µM: < 31%
[1]; [5]
  Papp at 16 h, 10 μM: < 1.5 ×10⁻⁶ cm/s
[1]; [6]
  Papp at 16 h, 10 μM: < 5 ×10⁻⁶ cm/s
[1]; pH 6.5
  recovery at 16 h, 10 µM: < 10%
[1]; [7]
  Papp at 16 h, 10 μM: 10.9 ×10⁻⁶ cm/s
[1]; [8]
  Papp at 16 h, 10 μM: 5 to 20 ×10⁻⁶ cm/s
[1]; pH 7.4
  recovery at 16 h, 10 µM: < 10%
  PAMPA passive permeability: high passive permeability
[1]; [9]
  Papp at 16 h, 10 μM: 20.4 ×10⁻⁶ cm/s
[1]; [10]
  Papp at 16 h, 10 μM: > 20 ×10⁻⁶ cm/s
[2]; [11]
  Papp A→B at 2 h, 10 μM: 8.3 ± 0.9 ×10⁻⁶ cm/s
  Papp B→A at 2 h, 10 μM: 12.5 ± 1.9 ×10⁻⁶ cm/s
[2]; [12]
  recovery at 2 h, 10 µM: 41.1 ± 1%
[2]; [13]
  recovery at 2 h, 10 µM: 51.6 ± 1%
[2]; without Verapamil
  Papp A→B at 2 h, 10 μM: 14.5 ± 0.4 ×10⁻⁶ cm/s
  Papp B→A at 2 h, 10 μM: 12.4 ± 2.1 ×10⁻⁶ cm/s
[2]; [14]
  recovery at 2 h, 10 µM: 56.7 ± 1.9%
[2]; [15]
  recovery at 2 h, 10 µM: 87.8 ± 1.2%
[2]
  efflux ratio at 2 h, 10 µM: 0.86
[3]
  Caco-2 efflux: no detectable efflux
  Caco-2 permeability: moderate-high permeability
[4]
  HLM % metabolized after 15 min: 43.0%
  HLM % metabolized after 30 min: 69.5%

## CC(=O)N1CCc2sccc2C1c1ccccc1 (stereo not shown) [Compound 5]
[1]; pH 5
  recovery at 16 h, 10 µM: 95%
[1]; [5]
  Papp at 16 h, 10 μM: > 200 ×10⁻⁶ cm/s
[1]; [6]
  Papp at 16 h, 10 μM: > 20 ×10⁻⁶ cm/s
[1]; pH 6.5
  recovery at 16 h, 10 µM: 98%
[1]; [7]
  Papp at 16 h, 10 μM: 117 ×10⁻⁶ cm/s
[1]; [8]
  Papp at 16 h, 10 μM: > 20 ×10⁻⁶ cm/s
[1]; pH 7.4
  recovery at 16 h, 10 µM: 91%
  PAMPA passive permeability: high passive permeability
[1]; [9]
  Papp at 16 h, 10 μM: > 200 ×10⁻⁶ cm/s
[1]; [10]
  Papp at 16 h, 10 μM: > 20 ×10⁻⁶ cm/s
[1]; over the full pH range tested
  PAMPA permeability: high permeability
[4]
  HLM % metabolized after 15 min: 52.5%
  HLM % metabolized after 30 min: 64.3%

## CCC(C)CNCC(=O)N1CCc2sccc2C1c1cccc(C)c1 (stereo not shown) [Compound 17]
[1]; pH 5
  recovery at 16 h, 10 µM: < 31%
[1]; [5]
  Papp at 16 h, 10 μM: < 0.7 ×10⁻⁶ cm/s
[1]; [6]
  Papp at 16 h, 10 μM: < 5 ×10⁻⁶ cm/s
[1]; pH 6.5
  recovery at 16 h, 10 µM: < 10%
[1]; [7]
  Papp at 16 h, 10 μM: < 9.7 ×10⁻⁶ cm/s
[1]; [8]
  Papp at 16 h, 10 μM: 5 to 20 ×10⁻⁶ cm/s
[1]; pH 7.4
  recovery at 16 h, 10 µM: < 10%
[1]; [9]
  Papp at 16 h, 10 μM: < 4.5 ×10⁻⁶ cm/s
[1]; [10]
  Papp at 16 h, 10 μM: < 5 ×10⁻⁶ cm/s
[2]; [11]
  Papp A→B at 2 h, 10 μM: 14.2 ± 0.8 ×10⁻⁶ cm/s
  Papp B→A at 2 h, 10 μM: 19.8 ± 2 ×10⁻⁶ cm/s
[2]; [12]
  recovery at 2 h, 10 µM: 58.6 ± 0.9%
[2]; [13]
  recovery at 2 h, 10 µM: 66.6 ± 1.9%
[2]; without Verapamil
  Papp A→B at 2 h, 10 μM: 17 ± 2.5 ×10⁻⁶ cm/s
  Papp B→A at 2 h, 10 μM: 17.4 ± 4.1 ×10⁻⁶ cm/s
[2]; [14]
  recovery at 2 h, 10 µM: 60.5 ± 2.4%
[2]; [15]
  recovery at 2 h, 10 µM: 80.4 ± 2.2%
[2]
  efflux ratio at 2 h, 10 µM: 1.02
[4]
  HLM % metabolized after 15 min: 44.4%
  HLM % metabolized after 30 min: 66.7%

## CCC(C)CNCC(=O)N1CCc2sccc2C1c1cccc(C)n1 (stereo not shown) [Compound 22]
[1]; pH 5
  recovery at 16 h, 10 µM: < 65%
[1]; [5]
  Papp at 16 h, 10 μM: < 0.4 ×10⁻⁶ cm/s
[1]; [6]
  Papp at 16 h, 10 μM: < 5 ×10⁻⁶ cm/s
[1]; pH 6.5
  recovery at 16 h, 10 µM: < 23%
[1]; [7]
  Papp at 16 h, 10 μM: 13 ×10⁻⁶ cm/s
[1]; [8]
  Papp at 16 h, 10 μM: 5 to 20 ×10⁻⁶ cm/s
[1]; pH 7.4
  recovery at 16 h, 10 µM: < 15%
  PAMPA passive permeability: high passive permeability
[1]; [9]
  Papp at 16 h, 10 μM: 42.4 ×10⁻⁶ cm/s
[1]; [10]
  Papp at 16 h, 10 μM: > 20 ×10⁻⁶ cm/s
[2]; [11]
  Papp A→B at 2 h, 10 μM: 35.5 ± 2 ×10⁻⁶ cm/s
  Papp B→A at 2 h, 10 μM: 22.7 ± 3.3 ×10⁻⁶ cm/s
[2]; [12]
  recovery at 2 h, 10 µM: 70 ± 2.5%
[2]; [13]
  recovery at 2 h, 10 µM: 75.7 ± 2%
[2]; without Verapamil
  Papp A→B at 2 h, 10 μM: 39.2 ± 0.7 ×10⁻⁶ cm/s
  Papp B→A at 2 h, 10 μM: 29.7 ± 0.2 ×10⁻⁶ cm/s
[2]; [14]
  recovery at 2 h, 10 µM: 88.7 ± 0.1%
[2]; [15]
  recovery at 2 h, 10 µM: 108 ± 3.1%
[2]
  efflux ratio at 2 h, 10 µM: 0.76
[3]
  Caco-2 efflux: no detectable efflux
  Caco-2 permeability: moderate-high permeability
[4]
  HLM % metabolized after 15 min: 36.9%
  HLM % metabolized after 30 min: 56.2%

## Cc1cccc([C@H]2c3ccsc3CCN2C(=O)CNCC(C)C)n1 [Compound 30]
[4]
  HLM % metabolized after 15 min: 28.8%
  HLM % metabolized after 30 min: 36.9%
HHAT
  Ki: 0.038 µM
